{"source": "patent US20070270431A1", "about": "“Preventive and/or Therapeutic Medicine for Rheumatoid Arthritis” (Kowa Co., Ltd., priority 2004, published 2007)", "system": "rats of a collagen-induced arthritis model", "assay": "Suppression of both-hindlimb edema in rats of a collagen-induced arthritis model", "type": "in vivo, rat", "conditions": "30 days after initial sensitization, pyridazinone 30 mg/kg twice daily, methotrexate 0.05 mg/kg once daily", "experimental": "The effect on suppressing edema of both hindlimbs by 2-benzyl-5-(4-chlorophenyl)-6-4-(methylthio)phenyl]-2H-pyridazin-3-one (synthesized through the aforementioned method) and methotrexate were determined both in the cases of combined administration and solo administration through the following procedure. For the experiment-rats of a collagen-induced arthritis model were used. (FDA, CBER, CDER, CDRH: Guidance for industry—Clinical development programs for drugs devices and biological products for the treatment of rheumatoid arthritis (RA)-(1999)). Lewis female rats (LFW/Crj) (obtained from Charles River Laboratories Japan, Inc.) were employed as test animals.\nFor each 8-week-old LEW/Crj rat, the volume of a portion from the ankle to the toe tip of each hindlimb was measured by means of a plethysmometer for small animals (TK-101CMP, product of Unicom) and the total volume was employed as a volume of the hindlimbs (hereinafter referred to as both-hindlimb volume) at the start of the test (hereinafter referred to as Pre value). By use of the Pre value as an index, the rats were divided into groups by one-parameter-based block randomization so that the values in the groups were averaged out.\nThe collagen emulsion for sensitization employed for inducing arthritis in rats was prepared by homogenizing a 0.3% Type II collagen liquid (product of Collagen Research Center), adjuvant peptide (product of Peptide Institute, Inc.), and adjuvant incomplete Freund (product of DIFCO) by means of a Handy Micro Homogenizer (product of Microtec Nition) under cooling with ice. The thus-prepared emulsion was intracutaneously injected to 10 sites in the back of each rat at 0.1 mL/site, to thereby initially sensitize the rat. Seven days after initial sensitization the same emulsion (0.12 mL) was intracutaneously injected to the tail head of the rat for booster sensitization\nAdministration of medicines was carried out on the day after initial sensitizaton to day 29. To the 2-benzyl-5-(4-chlorophenyl)-68 4-(methylthio)phenyl]-2H-pyridazin-3-one solo administration group, the medicine was orally administered twice; in the morning (9:00 to 11:00) and in the evening (15:30 to 17:30) at a dose of 30 mg/kg. […]\nThirty days after initial sensitization, both-hindlimb volume was measured. Volume of both-hindlimb edema was calculated by subtracting the Pre value from the thus-measured value.\nTable 1 and FIG. 1 show both-hindlimb edema volume of rats which was measured 30 days after initial sensitization where the rats were divided into the 2-benzyl-5-(4-chlorophenyl)-6-[4-(methylthio)phenyl]-2H-pyridazin-3-one solo administration group, the methotrexate solo administration group, and the combined administration group. […]", "data": [{"smiles": "CSc1ccc(-c2nn(Cc3ccccc3)c(=O)cc2-c2ccc(Cl)cc2)cc1", "note": "[2-benzyl-5-(4-chlorophenyl)-6-[4-(methylthio)phenyl]-2H-pyridazin-3-one]", "values": [{"measurement": "Both-hindlimb edema volume", "setting": "oral administration from day after sensitization to day 29, average of seven rats ± standard error", "value": "1.04 ± 0.32", "unit": "mL"}, {"measurement": "Edema suppression effect (in words)", "setting": "oral", "value": "did not result in potent edema suppression effects"}, {"measurement": "Relative index (average edema volume of administration group / control group)", "setting": "oral", "value": 0.66}, {"measurement": "Percent edema suppression", "setting": "vs control group, oral", "value": 34, "unit": "%"}]}]}
